Experimental data from patent US6558650B1, “Enhancement of cellular gallium uptake” (Oregon Health and Science University, priority 1998, dated 2003).

Assays:
[1] = tested on: TfR− and TfR+ cells (Chinese Hamster Ovary); experiment: Cellular uptake of Ga-67, text statements that do not separate TfR− and TfR+ cells; format: cell-based
Excerpt: (§1) A pair of transfected Chinese Hamster Ovary cells lines were used to compare, in a controlled manner, the Tf-dependent and Tf-independent systems for the uptake of Ga-67.
(§2) The two cell lines are identical except that TfR-cells express no TfR, and TfR+ cells over-express the transfected human TfR constitutively. This means that expression of the TfR is independent of cell growth or iron content, which could alter the cells matabolically in many ways that may confound a well-controlled experimental determination of cause and effect. TfR− and TfR+ cells were grown in monolayer and maintained as previously described (37).
The tube was placed on its side on the surface of a cool, daylight color-balanced, fluorescent light box (Just Normlicht).
The temperature at the surface of the light box was 29° C. for the fluorescent light box, and 37° C. for the UV light box. The PDN was added to 10 ml of incubation solution (below) to achieve concentrations ranging from 0.25 μM to 100 μM. Each 10 ml sample of incubation solution contained an equal quantity of ethanol (approximately 100 µl per 10 ml), including the controls.
Following growth of cells in 25 cm^2 flasks to subconfluence, monolayers of cultured cells were first washed, and then pre-incubated for 2 hours at 37° C. with 5 ml serum-free Dulbecco's Modified Essential Medium (DMEM) to deplete the cells of Tf. The pre-incubation medium was then removed and replaced by 1.5 ml of the incubation solution containing 10 uCi/ml carrier-free Ga-67 citrate (Mallinckrodt) in Hank's Balanced Salt solution (HBSS), pre-warmed to 37° C. The concentration of Ga-67 in the incubation solution was approximately 0.25 nM. The HBSS, pH 7.2-7.4, contained 3.7 g/L NaHCO3, 1 mM CaCl2, and 1 mM magnesium salts. Cells were incubated in the PDN- and Ga-67-containing solutions in a CO2 incubator at 37° C. for intervals ranging from 10 seconds to 90 minutes. All experiments were conducted in the dark.
Following incubation of cells with Ga-67, the flasks were immediately placed on ice. The radioactive material was removed by aspiration with a Pasteur pipette attached to water suction. The monolayers were washed 3 times with 5 ml each ice cold HBSS. Cells were washed once with phosphate-buffered saline (PBS), pre-warmed to 37° C. The PBS was removed and the cellular monolayer overlaid with 1.5 ml 0.25% trypsin containing 1 mM EDTA. The trypsin was immediately removed and the cells were incubated briefly (1 minute) at 37° C. The cells in each flask were then dislodged by several gentle mechanical blows to the side of the flask and collected in 200 μl ice cold PBS.
By a modification of a method previously published for radiolabeling of protozoan parasites (38), the cells were then separated from unbound contaminating radioactivity. The 200 μl of cells in PBS were layered gently over 200 μl of an 8.5:1.5 ratio of dibutylpthalate:liquid paraffin oil in a 1.5 ml microfuge tube. With care not to agitate the mixture, the tubes were than centrifuged at 12,000 rpm for 2 minutes in a microfuge. The supernatant and the oil was then aspirated carefully from the top of the tube with a Pasteur pipette attached to water suction. The bottom of the microfuge tube, containing the cell pellet (typical pellet volume˜100 μl), was then clipped with a microfuge tube clipper into a counting vial containing 900 μl of a solution of 200 mM NaOH. 1% SDS. The cell pellet was dissolved in this solution. The content of radioactivity in the samples was determined by a gamma well counting (Packard) in comparison to standard dilutions of the original Ga-67 incubation solution.
Protein assays were performed on the solubilized cell samples by formation of a cuprous bicinchonicic acid complex using a spectrophotometric microtiter plate reader (Dynatech) (39). The method and reagents used are supplied in a kit (Pierce) and were performed according to the manufacturer's directions.

[2] = tested on: TfR− cells (transfected Chinese Hamster Ovary cells expressing no TfR); conditions: 0.5 h, 25 µM
Excerpt: as §1, §2
(§3) The tube was placed on its side on the surface of a cool, daylight color-balanced, fluorescent light box (Just Normlicht). […]
(§4) The temperature at the surface of the light box was 29° C. for the fluorescent light box, and 37° C. for the UV light box. […] Each 10 ml sample of incubation solution contained an equal quantity of ethanol (approximately 100 µl per 10 ml), including the controls. […]
(§5) By a modification of a method previously published for radiolabeling of protozoan parasites (38), the cells were then separated from unbound contaminating radioactivity. […] The content of radioactivity in the samples was determined by a gamma well counting (Packard) in comparison to standard dilutions of the original Ga-67 incubation solution. […]

[3] = tested on: TfR+ cells (transfected Chinese Hamster Ovary cells over-expressing human TfR); conditions: 0.5 h, 25 µM
Excerpt: as §1, §2, §3, §4, §5

[4] = oral; cited from earlier work
[5] = tested on: nucleated rabbit erythrocytes; conditions: isolated nitroso-derivative compared with crude photo-degraded nifedipine (44); cited from earlier work

For COC(=O)C1=C(C)NC(C)=C([N+](=O)[O-])C1c1ccccc1C(F)(F)F (centres unmarked) [BAY K 8644], the “effect on Ga-67 uptake” value ([1]; light-protected compound) was “None of the light-protected or photo-irradiated compounds had an effect” and the “effect on Ga-67 uptake” value ([1]; photo-irradiated compound) was “None of the light-protected or photo-irradiated compounds had an effect”.
In the case of COc1ccc(CCN(C)CCCC(C#N)(c2ccc(OC)c(OC)c2)C(C)C)cc1OC (centres unmarked) [verapamil], the “effect on Ga-67 uptake” value ([1]; light-protected compound) is reported as “None of the light-protected or photo-irradiated compounds had an effect” and the “effect on Ga-67 uptake” value ([1]; photo-irradiated compound) is reported as “None of the light-protected or photo-irradiated compounds had an effect”.
In the case of COC(=O)C1=C(C)NC(C)=C(C(=O)OC)C1c1ccccc1[N+](=O)[O-] [Nifedipine, dimethyl 1,4-dihydro-2,6-dimethyl-4-(2-nitrophenyl)-3,5-pyridinedicarboxylate], the “fmoles Ga-67/mg Total Cellular Protein, TfR− cells” value [2] is given as “.171 fmoles Ga-67/mg Total Cellular”, the “fmoles Ga-67/mg Total Cellular Protein, TfR+ cells” value [3] is given as 0.296 fmoles Ga-67/mg Total Cellular and the “time to peak plasma levels post ingestion” value [4] is given as “approximately 30 minutes”.
In the case of CC(=O)c1c(C)nc(C)c(C(C)=O)c1-c1ccccc1N=O [nitroso-derivative, 2,6-dimethyl-3,5-diacetyl-4-(2′-nitrosophenyl)-pyridine], the “pharmacological action in enhancing the uptake of Fe^2+” value [5] is listed as “same pharmacological action as “crude” photo-degraded nifedipine” and the “gallium uptake (inferred from conditions that correlate with presence of the nitroso-derivative)” value ([1]; not tested in isolation, inferred from Example 3 data) is listed as “enhances gallium uptake”.
For COc1ccc([C@@H]2Sc3ccccc3N(CCN(C)C)C(=O)[C@@H]2OC(C)=O)cc1 [diltiazem], the “effect on Ga-67 uptake” value ([1]; light-protected compound) was “None of the light-protected or photo-irradiated compounds had an effect” and the “effect on Ga-67 uptake” value ([1]; photo-irradiated compound) was “None of the light-protected or photo-irradiated compounds had an effect”.
